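Briefly, cells in 96-well plates were exposed to five compound concentrations for 48 h, and endpoints were estimated by linear interpolation. The concentration for 50% growth inhibition is given as GI50. Definition used: TGI = concentration required for complete inhibition of growth.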
Tests used:
Assay in all cases: NCI-60 cell line screen, 48 h; in the data active = GI50 below about 0.43 µM; inactive = the rest
786-0 renal = system: 786-0 renal
A498 renal = system: A498 renal
A549 NSCLC = system: A549 NSCLC
ACHN renal = system: ACHN renal
BT-549 breast = system: BT-549 breast
CAKI-1 renal = system: CAKI-1 renal
CCRF-CEM leukemia = system: CCRF-CEM leukemia
COLO 205 colon = system: COLO 205 colon
DU-145 prostate = system: DU-145 prostate
EKVX NSCLC = system: EKVX NSCLC
HCC-2998 colon = system: HCC-2998 colon
HCT-116 colon = system: HCT-116 colon
HCT-15 colon = system: HCT-15 colon
HL-60(TB) leukemia = system: HL-60(TB) leukemia
HOP-62 NSCLC = system: HOP-62 NSCLC
HOP-92 NSCLC = system: HOP-92 NSCLC
HS 578T breast = system: HS 578T breast
HT29 colon = system: HT29 colon
IGROV1 ovarian = system: IGROV1 ovarian
K-562 leukemia = system: K-562 leukemia
KM12 colon = system: KM12 colon
LOX IMVI melanoma = system: LOX IMVI melanoma
M14 melanoma = system: M14 melanoma
MALME-3M melanoma = system: MALME-3M melanoma
MCF7 breast = system: MCF7 breast
MDA-MB-231 breast = system: MDA-MB-231 breast
MDA-MB-435 = system: MDA-MB-435
MOLT-4 leukemia = system: MOLT-4 leukemia
NCI-H226 lung = system: NCI-H226 lung
NCI-H23 lung = system: NCI-H23 lung
NCI-H460 lung = system: NCI-H460 lung
NCI-H522 lung = system: NCI-H522 lung
NCI/ADR-RES ovarian = system: NCI/ADR-RES ovarian
OVCAR-3 ovarian = system: OVCAR-3 ovarian
OVCAR-4 ovarian = system: OVCAR-4 ovarian
OVCAR-5 ovarian = system: OVCAR-5 ovarian
OVCAR-8 ovarian = system: OVCAR-8 ovarian
PC-3 prostate = system: PC-3 prostate
RPMI-8226 leukemia = system: RPMI-8226 leukemia
RXF 393 renal = system: RXF 393 renal
SF-268 CNS = system: SF-268 CNS
SF-295 CNS = system: SF-295 CNS
SF-539 CNS = system: SF-539 CNS
SK-MEL-2 melanoma = system: SK-MEL-2 melanoma
SK-MEL-28 melanoma = system: SK-MEL-28 melanoma
SK-MEL-5 melanoma = system: SK-MEL-5 melanoma
SK-OV-3 ovarian = system: SK-OV-3 ovarian
SN12C renal = system: SN12C renal
SNB-19 CNS = system: SNB-19 CNS
SNB-75 CNS = system: SNB-75 CNS
SR leukemia = system: SR leukemia
SW-620 colon = system: SW-620 colon
T-47D breast = system: T-47D breast
TK-10 renal = system: TK-10 renal
U251 CNS = system: U251 CNS
UACC-257 melanoma = system: UACC-257 melanoma
UO-31 renal = system: UO-31 renal
UACC-62 melanoma = system: UACC-62 melanoma

CS(=O)(=O)c1ccc(-c2cnc(NCc3ccco3)n3cnnc23)cc1
inactive: GI50 (786-0 renal) > 100 µM | GI50 (A498 renal) > 100 µM | GI50 (A549 NSCLC) > 100 µM | GI50 (ACHN renal) > 100 µM | GI50 (BT-549 breast) > 100 µM | GI50 (CAKI-1 renal) > 100 µM | GI50 (CCRF-CEM leukemia) 38 µM | GI50 (COLO 205 colon) 28.7 µM | GI50 (DU-145 prostate) > 100 µM | GI50 (EKVX NSCLC) > 100 µM | GI50 (HCC-2998 colon) > 100 µM | GI50 (HCT-116 colon) > 100 µM | GI50 (HCT-15 colon) > 100 µM | GI50 (HL-60(TB) leukemia) 39.7 µM | GI50 (HOP-62 NSCLC) > 100 µM | GI50 (HOP-92 NSCLC) 21.4 µM | GI50 (HS 578T breast) > 100 µM | GI50 (HT29 colon) 28.8 µM | GI50 (IGROV1 ovarian) > 100 µM | GI50 (K-562 leukemia) 72.6 µM | GI50 (KM12 colon) > 100 µM | GI50 (LOX IMVI melanoma) 60.1 µM | GI50 (M14 melanoma) 27 µM | GI50 (MALME-3M melanoma) 27.5 µM | GI50 (MCF7 breast) 60.4 µM | GI50 (MDA-MB-231 breast) 41.4 µM | GI50 (MDA-MB-435) 54.5 µM | GI50 (MOLT-4 leukemia) 37.4 µM | GI50 (NCI-H226 lung) 49 µM | GI50 (NCI-H23 lung) > 100 µM | GI50 (NCI-H460 lung) > 100 µM | GI50 (NCI-H522 lung) > 100 µM | GI50 (NCI/ADR-RES ovarian) > 100 µM | GI50 (OVCAR-3 ovarian) > 100 µM | GI50 (OVCAR-4 ovarian) > 100 µM | GI50 (OVCAR-5 ovarian) > 100 µM | GI50 (OVCAR-8 ovarian) > 100 µM | GI50 (PC-3 prostate) 57.8 µM | GI50 (RPMI-8226 leukemia) 53.3 µM | GI50 (RXF 393 renal) > 100 µM | GI50 (SF-268 CNS) > 100 µM | GI50 (SF-295 CNS) > 100 µM | GI50 (SF-539 CNS) > 100 µM | GI50 (SK-MEL-2 melanoma) 66.6 µM | GI50 (SK-MEL-28 melanoma) 25.3 µM | GI50 (SK-MEL-5 melanoma) 31.7 µM | GI50 (SK-OV-3 ovarian) > 100 µM | GI50 (SN12C renal) > 100 µM | GI50 (SNB-19 CNS) > 100 µM | GI50 (SNB-75 CNS) > 100 µM | GI50 (SR leukemia) > 100 µM | GI50 (SW-620 colon) > 100 µM | GI50 (T-47D breast) 47.8 µM | GI50 (TK-10 renal) > 100 µM | GI50 (U251 CNS) > 100 µM | GI50 (UACC-257 melanoma) 24.7 µM | GI50 (UO-31 renal) 38.8 µM
> 100 µM: TGI (786-0 renal) | TGI (A498 renal) | TGI (A549 NSCLC) | TGI (ACHN renal) | TGI (BT-549 breast) | TGI (CAKI-1 renal) | TGI (CCRF-CEM leukemia) | TGI (COLO 205 colon) | TGI (DU-145 prostate) | TGI (EKVX NSCLC) | TGI (HCC-2998 colon) | TGI (HCT-116 colon) | TGI (HCT-15 colon) | TGI (HL-60(TB) leukemia) | TGI (HOP-62 NSCLC) | TGI (HOP-92 NSCLC) | TGI (HS 578T breast) | TGI (HT29 colon) | TGI (IGROV1 ovarian) | TGI (K-562 leukemia) | TGI (KM12 colon) | TGI (LOX IMVI melanoma) | TGI (M14 melanoma) | TGI (MALME-3M melanoma) | TGI (MCF7 breast) | TGI (MDA-MB-231 breast) | TGI (MDA-MB-435) | TGI (MOLT-4 leukemia) | TGI (NCI-H226 lung) | TGI (NCI-H23 lung) | TGI (NCI-H460 lung) | TGI (NCI-H522 lung) | TGI (NCI/ADR-RES ovarian) | TGI (OVCAR-3 ovarian) | TGI (OVCAR-4 ovarian) | TGI (OVCAR-5 ovarian) | TGI (OVCAR-8 ovarian) | TGI (PC-3 prostate) | TGI (RPMI-8226 leukemia) | TGI (RXF 393 renal) | TGI (SF-268 CNS) | TGI (SF-295 CNS) | TGI (SF-539 CNS) | TGI (SK-MEL-2 melanoma) | TGI (SK-MEL-28 melanoma) | TGI (SK-MEL-5 melanoma) | TGI (SK-OV-3 ovarian) | TGI (SN12C renal) | TGI (SNB-19 CNS) | TGI (SNB-75 CNS) | TGI (SR leukemia) | TGI (SW-620 colon) | TGI (T-47D breast) | TGI (TK-10 renal) | TGI (U251 CNS) | TGI (UACC-257 melanoma) | TGI (UO-31 renal)

CCCCCCn1c2c(c3c(O)cccc31)C(=O)c1ccccc1-2
28 µM: TGI (RXF 393 renal)
37.9 µM: TGI (SK-MEL-2 melanoma)
34.8 µM: TGI (SW-620 colon)
30.9 µM: TGI (HCT-116 colon)
58.4 µM: TGI (K-562 leukemia)
36.6 µM: TGI (PC-3 prostate)
63.6 µM: TGI (HL-60(TB) leukemia)
33.2 µM: TGI (A498 renal) | TGI (HOP-92 NSCLC)
29.4 µM: TGI (HCC-2998 colon)
34.7 µM: TGI (NCI-H23 lung)
33.9 µM: TGI (BT-549 breast)
36.7 µM: TGI (OVCAR-8 ovarian)
32 µM: TGI (SN12C renal)
33.4 µM: TGI (MDA-MB-231 breast)
35.8 µM: TGI (NCI-H460 lung)
35.9 µM: TGI (NCI-H522 lung)
34.6 µM: TGI (SK-MEL-5 melanoma)
40.5 µM: TGI (SF-268 CNS)
39.7 µM: TGI (NCI-H226 lung)
33.8 µM: TGI (HOP-62 NSCLC) | TGI (LOX IMVI melanoma)
33 µM: TGI (NCI/ADR-RES ovarian)
44.8 µM: TGI (SF-295 CNS)
35.7 µM: TGI (SF-539 CNS)
32.8 µM: TGI (OVCAR-5 ovarian)
43.5 µM: TGI (EKVX NSCLC)
24.2 µM: TGI (TK-10 renal)
> 100 µM: TGI (COLO 205 colon) | TGI (HT29 colon) | TGI (MOLT-4 leukemia) | TGI (SK-MEL-28 melanoma) | TGI (SK-OV-3 ovarian) | TGI (SNB-19 CNS) | TGI (SNB-75 CNS) | TGI (SR leukemia) | TGI (T-47D breast)
44.9 µM: TGI (MDA-MB-435)
50 µM: TGI (CCRF-CEM leukemia)
43 µM: TGI (OVCAR-3 ovarian)
32.9 µM: TGI (U251 CNS) | TGI (UACC-257 melanoma)
inactive: GI50 (786-0 renal) 17.1 µM | GI50 (A498 renal) 18.9 µM | GI50 (A549 NSCLC) 16.4 µM | GI50 (ACHN renal) 16.6 µM | GI50 (BT-549 breast) 16.4 µM | GI50 (CAKI-1 renal) 26.9 µM | GI50 (CCRF-CEM leukemia) 23.2 µM | GI50 (COLO 205 colon) 38.8 µM | GI50 (DU-145 prostate) 15.7 µM | GI50 (EKVX NSCLC) 20.1 µM | GI50 (HCC-2998 colon) 15.7 µM | GI50 (HCT-116 colon) 17.2 µM | GI50 (HCT-15 colon) 18.6 µM | GI50 (HL-60(TB) leukemia) 18.7 µM | GI50 (HOP-62 NSCLC) 18.4 µM | GI50 (HOP-92 NSCLC) 17.6 µM | GI50 (HS 578T breast) 24.2 µM | GI50 (HT29 colon) 35.6 µM | GI50 (IGROV1 ovarian) 19.2 µM | GI50 (K-562 leukemia) 23.7 µM | GI50 (KM12 colon) 17.6 µM | GI50 (LOX IMVI melanoma) 18.1 µM | GI50 (M14 melanoma) 15.7 µM | GI50 (MCF7 breast) 18 µM | GI50 (MDA-MB-231 breast) 16.3 µM | GI50 (MDA-MB-435) 20.3 µM | GI50 (MOLT-4 leukemia) 28.7 µM | GI50 (NCI-H226 lung) 21.6 µM | GI50 (NCI-H23 lung) 18.4 µM | GI50 (NCI-H460 lung) 17.6 µM | GI50 (NCI-H522 lung) 17.2 µM | GI50 (NCI/ADR-RES ovarian) 18 µM | GI50 (OVCAR-3 ovarian) 20.6 µM | GI50 (OVCAR-4 ovarian) 25 µM | GI50 (OVCAR-5 ovarian) 18.6 µM | GI50 (OVCAR-8 ovarian) 17.4 µM | GI50 (PC-3 prostate) 19.6 µM | GI50 (RPMI-8226 leukemia) 20.3 µM | GI50 (RXF 393 renal) 12 µM | GI50 (SF-268 CNS) 20.3 µM | GI50 (SF-295 CNS) 21 µM | GI50 (SF-539 CNS) 18 µM | GI50 (SK-MEL-2 melanoma) 18.9 µM | GI50 (SK-MEL-28 melanoma) 35.9 µM | GI50 (SK-MEL-5 melanoma) 19.4 µM | GI50 (SK-OV-3 ovarian) 36.3 µM | GI50 (SN12C renal) 17.6 µM | GI50 (SNB-19 CNS) 39.4 µM | GI50 (SNB-75 CNS) 46.3 µM | GI50 (SR leukemia) 26 µM | GI50 (SW-620 colon) 18.2 µM | GI50 (T-47D breast) 41.4 µM | GI50 (TK-10 renal) 11 µM | GI50 (U251 CNS) 17.8 µM | GI50 (UACC-257 melanoma) 15.1 µM | GI50 (UACC-62 melanoma) 17.5 µM | GI50 (UO-31 renal) 16.1 µM
63.8 µM: TGI (CAKI-1 renal)
52.6 µM: TGI (HS 578T breast)
29.7 µM: TGI (DU-145 prostate)
53 µM: TGI (OVCAR-4 ovarian)
31.7 µM: TGI (UACC-62 melanoma)
34.5 µM: TGI (A549 NSCLC)
34.4 µM: TGI (KM12 colon)
30.3 µM: TGI (ACHN renal)
32.4 µM: TGI (786-0 renal)
31.2 µM: TGI (UO-31 renal)
41.9 µM: TGI (RPMI-8226 leukemia)
37 µM: TGI (HCT-15 colon)
35.2 µM: TGI (MCF7 breast)
30.2 µM: TGI (M14 melanoma)
39.6 µM: TGI (IGROV1 ovarian)

From PubChem BioAssay (NCI)
